PubChem BioAssay (NCI)
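These data come from cells grown in 96-well plates and exposed to compound for 48 hours at five concentrations. At the GI50, growth is halved. TGI marks complete inhibition of growth.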

What was measured:
Experiment in all cases: NCI-60 cell line screen, 48 h
[1] = tested on: COLO 205 colon
[2] = tested on: SF-539 CNS
[3] = tested on: BT-549 breast
[4] = tested on: MCF7 breast
[5] = tested on: NCI-H522 lung
[6] = tested on: A549 NSCLC
[7] = tested on: MALME-3M melanoma
[8] = tested on: DU-145 prostate
[9] = tested on: U251 CNS
[10] = tested on: SW-620 colon
[11] = tested on: SK-MEL-5 melanoma
[12] = tested on: KM12 colon
[13] = tested on: OVCAR-3 ovarian
[14] = tested on: SR leukemia
[15] = tested on: OVCAR-4 ovarian
[16] = tested on: EKVX NSCLC
[17] = tested on: SK-MEL-2 melanoma
[18] = tested on: MDA-MB-231 breast
[19] = tested on: HT29 colon
[20] = tested on: M14 melanoma
[21] = tested on: UACC-257 melanoma
[22] = tested on: MOLT-4 leukemia
[23] = tested on: HCT-116 colon
[24] = tested on: NCI-H226 lung
[25] = tested on: CAKI-1 renal
[26] = tested on: SK-OV-3 ovarian
[27] = tested on: HS 578T breast
[28] = tested on: SNB-75 CNS
[29] = tested on: HOP-92 NSCLC
[30] = tested on: T-47D breast
[31] = tested on: SN12C renal
[32] = tested on: IGROV1 ovarian
[33] = tested on: LOX IMVI melanoma
[34] = tested on: NCI/ADR-RES ovarian
[35] = tested on: ACHN renal
[36] = tested on: HCC-2998 colon
[37] = tested on: OVCAR-5 ovarian
[38] = tested on: RXF 393 renal
[39] = tested on: HCT-15 colon
[40] = tested on: K-562 leukemia
[41] = tested on: NCI-H23 lung
[42] = tested on: MDA-N
[43] = tested on: PC-3 prostate
[44] = tested on: SK-MEL-28 melanoma
[45] = tested on: UO-31 renal
[46] = tested on: HL-60(TB) leukemia
[47] = tested on: HOP-62 NSCLC
[48] = tested on: RPMI-8226 leukemia
[49] = tested on: OVCAR-8 ovarian
[50] = tested on: 786-0 renal
[51] = tested on: CCRF-CEM leukemia
[52] = tested on: UACC-62 melanoma
[53] = tested on: SNB-19 CNS
[54] = tested on: SF-295 CNS
[55] = tested on: MDA-MB-435
[56] = tested on: TK-10 renal
[57] = tested on: NCI-H460 lung
[58] = tested on: SF-268 CNS
[59] = tested on: A498 renal

`C=CCOC(=O)C1=C(C)NC2=N[C@H](CCCCCCCCC)C[C@@H]3CCC1N23` (some centres undefined) was tested, and the TGI [1] was 50.9 µM, the TGI [2] was 38.1 µM and the TGI [3] was 37.6 µM. The TGI [4] was 36.5 µM, the TGI [5] was 34.7 µM and the TGI [6] was greater than 100 µM. For the same compound, the TGI [7] was 35.7 µM, the TGI [8] was 67.8 µM and the TGI [9] was 40.5 µM. For the same compound, the TGI [10] was greater than 100 µM, the TGI [11] was 34.4 µM and the TGI [12] was greater than 100 µM. It also gave a TGI [13] of 37.5 µM, a TGI [14] greater than 100 µM and a TGI [15] of 45.9 µM. For the same compound, the TGI [16] was 53.1 µM, the TGI [17] was 36.5 µM and the TGI [18] was 41.7 µM. For the same compound, the TGI [19] was 72.2 µM, the TGI [20] was 37.6 µM and the TGI [21] was 37.1 µM. It also gave a TGI [22] greater than 100 µM, a TGI [23] of 36 µM and a TGI [24] of 36.6 µM. The TGI [25] was greater than 100 µM, the TGI [26] was 75.2 µM and the TGI [27] was 54.4 µM. The TGI [28] was 83.5 µM, the TGI [29] was 38 µM and the TGI [30] was 60.2 µM. For the same compound, the TGI [31] was 35.7 µM, the TGI [32] was 49.5 µM and the TGI [33] was 44.9 µM. For the same compound, the TGI [34] was 56 µM, the TGI [35] was 44.4 µM and the TGI [36] was 48.4 µM. It also gave a TGI [37] of 48.2 µM, a TGI [38] of 36 µM and a TGI [39] of 56.2 µM. For the same compound, the TGI [40] was greater than 100 µM, the TGI [41] was 41.8 µM and the TGI [42] was 38.4 µM. It also gave a TGI [43] of 42.1 µM, a TGI [44] of 53.6 µM and a TGI [45] of 32.5 µM. For the same compound, the TGI [46] was 69.4 µM, the TGI [47] was 79 µM and the TGI [48] was greater than 100 µM. For the same compound, the TGI [49] was greater than 100 µM, the TGI [50] was 39.3 µM and the TGI [51] was greater than 100 µM. The TGI [52] was 35.6 µM, the TGI [53] was 42 µM and the TGI [54] was greater than 100 µM. The TGI [55] was 44.5 µM, the TGI [56] was 39.4 µM and the TGI [57] was 72.6 µM. The TGI [58] was 39.9 µM.

Compound `Cc1ccc2c(=O)cc(-c3ccc4ccccc4c3)[nH]c2n1` has a TGI [1] of 5.55 µM, a TGI [2] of 54.1 µM and a TGI [3] greater than 100 µM. The TGI [4] was 37.9 µM, the TGI [5] was 20.5 µM and the TGI [6] was greater than 100 µM. The TGI [7] was greater than 100 µM, the TGI [8] was greater than 100 µM and the GI50 [9] was 4.57 µM. The TGI [9] was greater than 100 µM, the TGI [10] was greater than 100 µM and the TGI [59] was 15.5 µM. The GI50 [11] was 3.3 µM, the TGI [11] was 12.7 µM and the TGI [12] was 65.4 µM. The GI50 [13] was 3.59 µM, the TGI [13] was greater than 100 µM and the TGI [14] was 5.59 µM. For the same compound, the TGI [15] was 93.2 µM, the TGI [16] was greater than 100 µM and the TGI [17] was greater than 100 µM. For the same compound, the TGI [18] was greater than 100 µM, the TGI [19] was greater than 100 µM and the TGI [20] was greater than 100 µM. The TGI [21] was greater than 100 µM, the TGI [22] was 29.1 µM and the GI50 [23] was 4 µM. It also gave a TGI [23] of 87.9 µM, a TGI [24] of 98.4 µM and a GI50 [25] of 5.41 µM. It also gave a TGI [25] greater than 100 µM, a TGI [26] greater than 100 µM and a TGI [27] of 20 µM. The TGI [28] was 14.6 µM, the TGI [29] was 7.7 µM and the TGI [30] was greater than 100 µM. It also gave a TGI [31] greater than 100 µM, a TGI [32] of 82.7 µM and a TGI [33] of 39.6 µM. For the same compound, the TGI [34] was 48.5 µM, the TGI [35] was greater than 100 µM and the TGI [36] was 68.6 µM. For the same compound, the TGI [37] was greater than 100 µM, the TGI [39] was greater than 100 µM and the TGI [40] was 13 µM. The TGI [41] was 28.7 µM, the GI50 [42] was 1.94 µM and the TGI [42] was 4.69 µM. It also gave a GI50 [43] of 2.62 µM, a TGI [43] of 9.61 µM and a TGI [44] greater than 100 µM. For the same compound, the TGI [45] was greater than 100 µM, the TGI [46] was 4.18 µM and the TGI [47] was greater than 100 µM. The TGI [48] was 19.5 µM, the TGI [49] was greater than 100 µM and the TGI [50] was greater than 100 µM. For the same compound, the TGI [51] was 14.6 µM, the TGI [52] was 24.1 µM and the TGI [53] was greater than 100 µM. It also gave a GI50 [54] of 3.8 µM, a TGI [54] of 39.6 µM and a GI50 [55] of 1.57 µM. For the same compound, the TGI [55] was 4.16 µM, the TGI [56] was greater than 100 µM and the GI50 [57] was 3.82 µM. The TGI [57] was greater than 100 µM and the TGI [58] was greater than 100 µM.

`O=C1Nc2nccnc2C(=O)N2CCC[C@@H]12` showed a TGI [1] greater than 100 µM, a TGI [2] greater than 100 µM and a TGI [3] greater than 100 µM. For the same compound, the TGI [4] was greater than 100 µM, the TGI [5] was greater than 100 µM and the TGI [6] was greater than 100 µM. For the same compound, the TGI [7] was greater than 100 µM, the TGI [8] was greater than 100 µM and the TGI [9] was greater than 100 µM. For the same compound, the TGI [10] was greater than 100 µM, the TGI [11] was greater than 100 µM and the TGI [12] was greater than 100 µM. The TGI [13] was greater than 100 µM, the TGI [14] was greater than 100 µM and the TGI [15] was greater than 100 µM. The TGI [16] was greater than 100 µM, the TGI [17] was greater than 100 µM and the TGI [18] was greater than 100 µM. For the same compound, the TGI [19] was greater than 100 µM, the TGI [20] was greater than 100 µM and the TGI [21] was greater than 100 µM. It also gave a TGI [22] greater than 100 µM, a TGI [23] greater than 100 µM and a TGI [24] greater than 100 µM. It also gave a TGI [25] greater than 100 µM, a TGI [26] greater than 100 µM and a TGI [27] greater than 100 µM. The TGI [28] was greater than 100 µM, the TGI [29] was greater than 100 µM and the TGI [30] was greater than 100 µM. It also gave a TGI [31] greater than 100 µM, a TGI [32] greater than 100 µM and a TGI [33] greater than 100 µM. It also gave a TGI [34] greater than 100 µM, a TGI [35] greater than 100 µM and a TGI [36] greater than 100 µM. It also gave a TGI [37] greater than 100 µM, a TGI [38] greater than 100 µM and a TGI [39] greater than 100 µM. The TGI [40] was greater than 100 µM, the TGI [41] was greater than 100 µM and the TGI [42] was greater than 100 µM. It also gave a TGI [43] greater than 100 µM, a TGI [44] greater than 100 µM and a TGI [45] greater than 100 µM. It also gave a TGI [46] greater than 100 µM, a TGI [47] greater than 100 µM and a TGI [48] greater than 100 µM. It also gave a TGI [49] greater than 100 µM, a TGI [50] greater than 100 µM and a TGI [51] greater than 100 µM. It also gave a TGI [52] greater than 100 µM, a TGI [53] greater than 100 µM and a TGI [54] greater than 100 µM. For the same compound, the TGI [55] was greater than 100 µM, the TGI [56] was greater than 100 µM and the TGI [57] was greater than 100 µM. It also gave a TGI [58] greater than 100 µM.
